Reference: patent US20260294927A1, “KIF18A INHIBITOR COMPOUND, AND PHARMACEUTICAL COMPOSITION AND PREPARATION METHOD THEREFOR AND USE THEREOF” (CHANGCHUN GENESCIENCE PHARMACEUTICAL CO., LTD., priority 2022, published 2026)

Test system: OVCAR-3 cells
Assay: imaging-based nuclear count analysis (NCA) in OVCAR-3 cells
Assay type: cell-based
Conditions: Homo sapiens, 96 h, 4 days, nuclear count with Hoechst 33342, 0.1% DMSO, low control 10 μM AM-5308
Procedure: Test name: imaging-based nuclear count analysis (NCA) in OVCAR-3 cells
• a) The final test concentrations of AM-5308:10000, 3333.3, 1111.1, 370.3, 123.4, 41.1, 13.7, 4.5, 1.5, 0.5 nM. • b) The final test concentrations of the test compound: 10000, 3333.3, 1111.1, 370.3, 123.4, 41.1, 13.7, 4.5, 1.5, 0.5 nM. • c) The cells were cultured in a 37° C., 5% CO2 incubator for 4 days. • d) DMSO concentration was 0.1%. Day 1 Seeding the Cells into a 384-Well Cell Culture Plate • a) When the cell confluence reached 80%-90%, the cells were treated. • b) The cells were resuspended in a medium and then counted and diluted at a desired density. • c) A cell suspension containing appropriate cells was added to the 384-well plate at 30 μL/well: 600 cells/well. […]
High-reading control wells: cells+30 nL DMSO; low-reading control wells: 10 μM AM-5308.
IC50 (nM) was calculated using GraphPad Prism 8 software and the effect-dose curves of the compound were plotted.

IC50: 110 nM
SMILES: O=C(Nc1cccc2c1nc1n2C2CCC1CC2)c1ccc(NS(=O)(=O)CCO)cc1N1CCC2(CC1)CC2 [Compound 100, 4-(2-hydroxyethanesulfonylamino)-2-(6-azaspiro[2.5]octan-6-yl)-N-(1,2,3,4-tetrahydro-1,4-ethylbenzo[4,5]imidazo[1,2-a]pyridin-6-yl)benzamide]
